Assay results taken from patent publication US20230035127A1, “CULTURE AND DIFFERENTIATION OF PLURIPOTENT STEM CELLS” (University of Maryland, College Park, priority 2021, published 2023).
“And” between values parts separate entries of the source, which are not always exact repeats. Equal entries are not always repeated. “Also recorded” adds a separate entry of the source.

Assays:
[1] = test system: human eiPSCs (DF19-9-11T.H); test: 3D suspension culture of eiPSC spheroids with Rock inhibitor (morphology, size, cells per spheroid); format: cell-based; conditions: day −3
Procedure: The timeline for the 4-day (from day −4 to 0) 3D culture and the subsequent 3D cardiac differentiation of iPSCs is illustrated in FIG. 1B. First, 3D eiPSC spheroids were obtained for 3D cardiac differentiation, for which the eiPSC colonies from 2D culture were detached and mechanically cut with a cell strainer (100 μm mesh size) into small iPSC clumps for suspension culture in the mTeSR medium for 4 days. Methylcellulose was added into the medium to enhance the medium viscosity and reduce fusion of the eiPSC clumps/spheroids during the suspension culture. During the first two days of 3D culture, the medium was supplemented with 1 μM RI (low RI) or 10 μM RI (high RI that has been commonly used for improving the survival/yield of human PSCs including iPSCs during culture), and no RI was used during the last two days of culture. […]
To obtain 3D iPSC spheroids, the iPSC colonies under 2D culture at ˜80% confluence were treated with Versene for 2 min, rinsed with PBS, and further detached from the substrate by gentle pipetting. […] The dissociated cells were then resuspended in 1.4 ml of the aforementioned iPSC maintenance medium and the cell number was counted using a hemocytometer. […]

[2] = test system: eiPSC-derived cardiac spheroids; test: Re-plating of cardiac spheroids in regular cell culture petri dish (attachment); format: cell-based, human; conditions: day 13.5 spheroids, 3 days after re-plating
Procedure: After 3 days, ˜61% of the cardiac spheroids in the 10 μM RI group attached to the 2D surface, and some of the cells migrated out of the spheroids appeared to be neuron-like with neurite-like processes (FIG. 4B-C). […] To confirm the aforementioned observation of neuron-like cells in the 10 μM RI group, immunofluorescence staining of cryosectioned cardiac spheroids on day 12.5 in the 1 and 10 μM RI groups was conducted. […] Therefore, studies were performed to further understand the mechanisms of the improved cardiac differentiation with the reduced RI.

[3] = test system: human eiPSCs; test: Flow cytometry of protein markers in eiPSC spheroids and cardiac spheroids; format: cell-based
Procedure: For flow cytometry, the eiPSC spheroids were collected on day 0 and the cardiac spheroids were collected on days 1.5, 2.5, 12.5, 15. The spheroids were dissociated to single cells by 0.25% trypsin for 5 min at 37° C. and then fixed with 75% ethanol at 4° C. overnight. The cells were permeabilized with 0.05% Triton X-100 for 3 min and then rinsed with 1×PBS twice. The cell numbers were adjusted to 1×10^6 cells/tube in 700 μL of saline for each marker. These cells were incubated with primary antibodies including OCT-4 (1:500 dilution, Cell Signaling Technologies), NANOG (1:500 dilution, Cell Signaling Technologies), SSEA-4 (1:500 dilution, Cell Signaling Technologies), BRACHYURY (1:500; Santa Cruz Biotechnology), NKX2.5 (1:500; Santa Cruz Biotechnology), cTnT (1:500 dilution, Cell Signaling Technologies), cTnI (1:500 dilution, Cell Signaling Technologies), α-ACTININ (1:500 dilution; Santa Cruz Biotechnology), MUSASHI-1 (1:500; R&D Systems), and TUJ-1 (1:500; R&D Systems) at 4° C. overnight. Subsequently, the samples were rinsed with 1×PBS thrice before incubation with corresponding secondary antibodies: goat anti-mouse IgG FITC and goat anti-rabbit IgG PE, respectively (1:1000; Invitrogen) for 1 h at RT. The samples were then rinsed with 1×PBS thrice before flow cytometry. The negative controls were the cells incubated with respective primary antibodies as aforementioned (no incubation with a secondary antibody).

`C[C@@H](N)[C@H]1CC[C@H](C(=O)Nc2ccncc2)CC1.Cl.Cl` (relative stereo) [RI, (+)-(R)-trans-4-(1-aminoethyl)-N-(4-pyridyl) cyclo-hexanecarboxamide dihydrochloride] was tested, and the “morphology of eiPSC spheroids” value ([1]; 1 μM RI) was “remain solid-like”, the “morphology of eiPSC spheroids” value ([1]; 10 μM RI) was “evident core-shell morphology with a cavity-like core” and the “percentage of cardiac spheroids attached to the 2D surface” value ([2]; 5 μM RI) was roughly 41%. The “percentage of cardiac spheroids attached to the 2D surface” value ([2]; 10 μM RI, dihydrochloride) was ~61% and > 60%, the “expression of pluripotency markers OCT-4, NANOG, SSEA-4” value ([3]; 1 μM RI group versus 10 μM RI group, day 0) was “significantly higher” and the “expression of neural-specific protein markers MUSASHI-1 and TUJ-1” value ([3]; 1 μM RI, cardiac spheroids day 12.5, dihydrochloride) was “negligible; also recorded: negative”. For the same molecule, the BRACHYURY-positive cells ([3]; 1 μM RI, day 1.5, after CHIR99021 and BIO for 1 day) was roughly 100%, the NKX2.5 expression ([3]; 1 μM RI, day 2.5, after XAV939 and KY02111) was roughly 100% and the cTnI-positive cells ([3]; 1 μM RI, day 12.5) was 93.9%. The “cells positive for sarcomere-related proteins including α-ACTININ and cTnI” value ([3]; 1 μM RI, day 12.5) was “more than 90%”, the α-ACTININ-positive cells ([3]; 1 μM RI, day 12.5) was 95% and the “expression of ectoderm marker NESTIN” value ([3]; 1 μM RI, eiPSC spheroids day 0) was “negligible”. The “expression of ectoderm marker NESTIN” value ([3]; 10 μM RI, eiPSC spheroids after four-day culture (day 0)) was 73.1% and the “percentage of cTnT-positive cells and mean intensity of cTnT fluorescence staining” value ([3]; RI from 1 to 5 to 10 μM, cardiac spheroids day 15, dihydrochloride) was “decreased with the increase of the RI concentration; also recorded: decreases as the RI treatment concentration increases”.
